Results from US11066396B2 (priority 2016, dated 2021).

Columns and labels:
[1] = target: HDAC8 (Homo sapiens (Human), UniProt Q9BY41); conditions: read-out: HDAC8 IC50
[2] = target: HDAC1 (Homo sapiens (Human), UniProt Q13547); conditions: read-out: HDAC1 IC50
HDAC1, sequence (Q13547 whole entry): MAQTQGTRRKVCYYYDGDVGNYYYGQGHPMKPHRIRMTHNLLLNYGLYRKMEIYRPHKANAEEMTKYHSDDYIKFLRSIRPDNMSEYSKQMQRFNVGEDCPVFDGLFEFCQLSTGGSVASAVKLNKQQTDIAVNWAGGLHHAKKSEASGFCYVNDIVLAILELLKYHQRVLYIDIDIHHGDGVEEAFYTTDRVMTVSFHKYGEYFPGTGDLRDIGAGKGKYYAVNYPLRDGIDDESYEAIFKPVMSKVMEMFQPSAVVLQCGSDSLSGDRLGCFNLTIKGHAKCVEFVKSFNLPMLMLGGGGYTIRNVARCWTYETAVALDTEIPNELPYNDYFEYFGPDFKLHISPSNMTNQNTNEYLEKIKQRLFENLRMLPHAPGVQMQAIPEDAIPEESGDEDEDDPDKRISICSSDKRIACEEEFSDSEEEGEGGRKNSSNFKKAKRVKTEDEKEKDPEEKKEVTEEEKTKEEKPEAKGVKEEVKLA

HDAC8, sequence (Q9BY41 whole entry): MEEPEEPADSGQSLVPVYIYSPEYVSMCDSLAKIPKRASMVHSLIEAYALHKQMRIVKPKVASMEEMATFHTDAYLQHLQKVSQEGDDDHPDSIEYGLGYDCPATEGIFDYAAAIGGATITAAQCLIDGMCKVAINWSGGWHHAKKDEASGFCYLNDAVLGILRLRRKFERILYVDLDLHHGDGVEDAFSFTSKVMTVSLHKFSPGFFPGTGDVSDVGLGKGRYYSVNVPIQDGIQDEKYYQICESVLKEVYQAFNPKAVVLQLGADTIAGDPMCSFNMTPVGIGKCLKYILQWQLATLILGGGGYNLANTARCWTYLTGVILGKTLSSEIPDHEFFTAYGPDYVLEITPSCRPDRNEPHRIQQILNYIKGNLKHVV

Compound `Cc1cccc(N2CCC(NCc3ccc(-c4noc(C(F)(F)F)n4)cc3)CC2)c1` [Example 349, 1-(3-methylphenyl)-N-({4-[5-(trifluoromethyl)-1,2,4-oxadiazol-3-yl]phenyl}methyl)piperidin-4-amine] has an IC50 [1] of 1400 nM and an IC50 [2] of 730 nM.
Work on `FC(F)(F)c1nc(-c2ccnc(OCc3ccno3)c2)no1` [Example 207, 2-(isoxazol-5-ylmethoxy)-4-[5-(trifluoromethyl)-1,2,4-oxadiazol-3-yl]pyridine] yielded an IC50 [1] of 1300 nM and an IC50 [2] of 1500 nM.
`CC(C)c1ncncc1C(=O)N(Cc1ccc(-c2noc(C(F)(F)F)n2)cn1)c1cccc(F)c1` [Example 399, N-(3-fluorophenyl)-4-(1-methylethyl)-N-({5-[5-(trifluoromethyl)-1,2,4-oxadiazol-3-yl]pyridin-2-yl}methyl)pyrimidine-5-carboxamide] gave an IC50 [1] of 3100 nM and an IC50 [2] of 930 nM.
In the case of `O=C1NC(=O)[C@]2(CC[C@H](NCc3ccc(-c4noc(C(F)(F)F)n4)cn3)CC2)N1` [Example 376, (5s,8s)-8-[({5-[5-(trifluoromethyl)-1,2,4-oxadiazol-3-yl]pyridin-2-yl}methyl)amino]-1,3-diazaspiro[4.5]decane-2,4-dione], the IC50 [1] is reported as 3900 nM and the IC50 [2] is reported as 3400 nM.
In the case of `CN1CCN(CC(=O)N(Cc2ccc(-c3noc(C(F)(F)F)n3)cc2)c2cccc(C(F)(F)F)c2)CC1` [Example 93, 2-(4-methylpiperazin-1-yl)-N-(4-(5-(trifluoromethyl)-1,2,4-oxadiazol-3-yl)benzyl)-N-(3-(trifluoromethyl)phenyl)acetamide], the IC50 [1] is reported as 2200 nM and the IC50 [2] is reported as 990 nM.
`CN1CC(=O)N(c2ccc(-c3noc(C(F)(F)F)n3)cc2)C(c2ccccc2)C1` (stereo not shown) [Example 162, 4-methyl-6-phenyl-1-(4-(5-(trifluoromethyl)-1,2,4-oxadiazol-3-yl)phenyl)piperazin-2-one] was tested, and the IC50 [1] was 1400 nM and the IC50 [2] was 850 nM.
`FC(F)(F)c1nc(-c2ccc(CNc3[nH]nc4ccccc34)nc2)no1` [Example 430, N-({5-[5-(trifluoromethyl)-1,2,4-oxadiazol-3-yl]pyridin-2-yl}methyl)-2H-indazol-3-amine] gave an IC50 [1] of 2000 nM and an IC50 [2] of 530 nM.
Work on `O=C(C1CCS(=O)(=O)CC1)N(Cc1cnc(-c2noc(C(F)(F)F)n2)cn1)c1cccc(C(F)(F)F)c1` [Example 470, N-({5-[5-(trifluoromethyl)-1,2,4-oxadiazol-3-yl]pyrazin-2-yl}methyl)-N-[3-(trifluoromethyl)phenyl]tetrahydro-2H-thiopyran-4-carboxamide 1,1-dioxide] yielded an IC50 [1] of 10000 nM and an IC50 [2] of 1100 nM.
Work on `Cn1ncc(NCc2ccc(-c3noc(C(F)(F)F)n3)cn2)n1` [Example 366, 2-methyl-N-({5-[5-(trifluoromethyl)-1,2,4-oxadiazol-3-yl]pyridin-2-yl}methyl)-2H-1,2,3-triazol-4-amine] yielded an IC50 [1] of 2700 nM and an IC50 [2] of 1300 nM.
`Cn1c(OCc2ccc(-c3noc(C(F)(F)F)n3)c(F)c2)nc2ccccc21` [Example 235, 2-({3-fluoro-4-[5-(trifluoromethyl)-1,2,4-oxadiazol-3-yl]phenyl}methoxy)-1-methyl-1H-benzimidazole] showed an IC50 [1] of 770 nM and an IC50 [2] of 520 nM.
With `FC(F)(F)c1nc(-c2ccnc(OC3CCCc4ccc(Cl)nc43)c2)no1` (racemic) [Example 226, 2-chloro-8-({4-[5-(trifluoromethyl)-1,2,4-oxadiazol-3-yl]pyridin-2-yl}oxy)-5,6,7,8-tetrahydroquinoline] the IC50 [1] was 850 nM and the IC50 [2] was 1100 nM.
`CC(C)NC(=O)c1ccccc1NCc1ccc(-c2noc(C(F)(F)F)n2)cn1` [Example 443, N-(1-methylethyl)-2-[({5-[5-(trifluoromethyl)-1,2,4-oxadiazol-3-yl]pyridin-2-yl}methyl)amino]benzamide] showed an IC50 [1] of 1400 nM and an IC50 [2] of 1200 nM.
In the case of `O=C(C1CC1c1cncnc1)N(Cc1ccc(-c2noc(C(F)(F)F)n2)cc1)c1cccc(C(F)(F)F)c1` (racemic) [Example 73, 2-(pyrimidin-5-yl)-N-(4-(5-(trifluoromethyl)-1,2,4-oxadiazol-3-yl)benzyl)-N-(3-(trifluoromethyl)phenyl)cyclopropane-1-carboxamide], the IC50 [1] is reported as 2200 nM and the IC50 [2] is reported as 940 nM.
`Fc1ccc2ccc(OCc3ccc(-c4noc(C(F)(F)F)n4)cn3)nc2c1` [Example 326, 7-fluoro-2-({5-[5-(trifluoromethyl)-1,2,4-oxadiazol-3-yl]pyridin-2-yl}methoxy)quinoline] showed an IC50 [1] of 45000 nM and an IC50 [2] of 35000 nM.
`CC(=O)N1CCN(CC(=O)N(Cc2ccc(-c3noc(C(F)(F)F)n3)cc2)c2cccc(C(F)(F)F)c2)CC1` [Example 69, 2-(4-acetylpiperazin-1-yl)-N-(4-(5-(trifluoromethyl)-1,2,4-oxadiazol-3-yl)benzyl)-N-(3-(trifluoromethyl)phenyl)acetamide] showed an IC50 [1] of 2600 nM and an IC50 [2] of 1300 nM.
For `O=C(c1cncnc1)N(Cc1ccc(-c2noc(C(F)(F)F)n2)cc1)c1cccc(C(F)(F)F)c1` [Example 71, N-(4-(5-(trifluoromethyl)-1,2,4-oxadiazol-3-yl)benzyl)-N-(3-(trifluoromethyl)phenyl)pyrimidine-5-carboxamide], the IC50 [1] was 2800 nM and the IC50 [2] was 670 nM.
With `Cc1nonc1CC(=O)N(Cc1ccc(-c2noc(C(F)(F)F)n2)cn1)c1cccc(F)c1` [Example 62, N-(3-fluorophenyl)-2-(4-methyl-1,2,5-oxadiazol-3-yl)-N-((5-(5-(trifluoromethyl)-1,2,4-oxadiazol-3-yl)pyridin-2-yl)methyl)acetamide] the IC50 [1] was 3500 nM and the IC50 [2] was 480 nM.
In the case of `CC(C)(C)OC(=O)[C@@H]1CCC(=O)N1c1ccc(-c2noc(C(F)(F)F)n2)c(F)c1` [Example 331, tert-butyl 1-{3-fluoro-4-[5-(trifluoromethyl)-1,2,4-oxadiazol-3-yl]phenyl}-5-oxo-L-prolinate], the IC50 [1] is reported as 19000 nM and the IC50 [2] is reported as 4900 nM.
`O=C(Cc1[nH]nc2ccccc12)N(Cc1ccc(-c2noc(C(F)(F)F)n2)cn1)c1cccc(F)c1` [Example 397, N-(3-fluorophenyl)-2-(2H-indazol-3-yl)-N-({5-[5-(trifluoromethyl)-1,2,4-oxadiazol-3-yl]pyridin-2-yl}methyl)acetamide] showed an IC50 [1] of 1100 nM and an IC50 [2] of 420 nM.
Work on `O=C1COC[C@@H](c2ccccc2)N1c1cnc(-c2noc(C(F)(F)F)n2)cn1` [Example 164, (R)-5-phenyl-4-(5-(5-(trifluoromethyl)-1,2,4-oxadiazol-3-yl)pyrazin-2-yl)morpholin-3-one] yielded an IC50 [1] of 6100 nM and an IC50 [2] of 2900 nM.
With `O=C1NCCCCC1NCc1ccc(-c2noc(C(F)(F)F)n2)cn1` (racemic) [Example 377, 3-[({5-[5-(trifluoromethyl)-1,2,4-oxadiazol-3-yl]pyridin-2-yl}methyl)amino]azepan-2-one] the IC50 [1] was 3300 nM and the IC50 [2] was 7300 nM.
In the case of `O=C1CC[C@@H](c2nc(-c3cccnc3)no2)N1c1ccc(-c2noc(C(F)(F)F)n2)cc1` [Example 113, (S)-5-(3-(pyridin-3-yl)-1,2,4-oxadiazol-5-yl)-1-(4-(5-(trifluoromethyl)-1,2,4-oxadiazol-3-yl)phenyl)pyrrolidin-2-one], the IC50 [1] is reported as 410 nM and the IC50 [2] is reported as 130 nM.
`COCc1cc(=O)n(Cc2ccc(-c3noc(C(F)(F)F)n3)cn2)c2ccccc12` [Example 420, 4-(methoxymethyl)-1-({5-[5-(trifluoromethyl)-1,2,4-oxadiazol-3-yl]pyridin-2-yl}methyl)quinolin-2(1H)-one] gave an IC50 [1] of 1000 nM and an IC50 [2] of 110 nM.
`O=C([C@@H]1CCC(=O)N1c1cc(F)c(-c2noc(C(F)(F)F)n2)cc1F)N1CCC1` [Example 341, (5S)-5-(azetidin-1-ylcarbonyl)-1-{2,5-difluoro-4-[5-(trifluoromethyl)-1,2,4-oxadiazol-3-yl]phenyl}pyrrolidin-2-one] showed an IC50 [1] of 26000 nM and an IC50 [2] of 41000 nM.
In the case of `COc1ccc(NCc2ccc(-c3noc(C(F)(F)F)n3)cn2)cn1` [Example 363, 6-methoxy-N-({5-[5-(trifluoromethyl)-1,2,4-oxadiazol-3-yl]pyridin-2-yl}methyl)pyridin-3-amine], the IC50 [1] is reported as 3400 nM and the IC50 [2] is reported as 520 nM.
With `Fc1cc(COc2nc[nH]n2)ccc1-c1noc(C(F)(F)F)n1` [Example 247, 3-(2-fluoro-4-{[(1H-1,2,4-triazol-3-yl)oxy]methyl}phenyl)-5-(trifluoromethyl)-1,2,4-oxadiazole] the IC50 [1] was 1400 nM and the IC50 [2] was 5500 nM.
In the case of `O=C(C1CCS(=O)(=O)C1)N(Cc1ccc(-c2noc(C(F)(F)F)n2)cn1)c1cccc(F)c1` (racemic) [Example 54, N-(3-fluorophenyl)-N-((5-(5-(trifluoromethyl)-1,2,4-oxadiazol-3-yl)pyridin-2-yl)methyl)tetrahydrothiophene-3-carboxamide 1,1-dioxide], the IC50 [1] is reported as 2600 nM and the IC50 [2] is reported as 270 nM.
Compound `O=c1ccc2ccc(C(F)(F)F)cc2n1Cc1ccc(-c2noc(C(F)(F)F)n2)cn1` [Example 388, 7-(trifluoromethyl)-1-({5-[5-(trifluoromethyl)-1,2,4-oxadiazol-3-yl]pyridin-2-yl}methyl)quinolin-2(1H)-one] has an IC50 [1] of 4900 nM and an IC50 [2] of 280 nM.
`FC(F)(F)c1nc(-c2ccnc(OC[C@@H]3C[C@@H]3c3ncccn3)c2)no1` [Example 424, 2-{(1S,2R)-2-[({4-[5-(trifluoromethyl)-1,2,4-oxadiazol-3-yl]pyridin-2-yl}oxy)methyl]cyclopropyl}pyrimidine] gave an IC50 [1] of 320 nM and an IC50 [2] of 2600 nM.
With `FC(F)(F)c1nc(-c2ccnc(OCc3cnn4c3OCCC4)c2)no1` [Example 209, 3-[({4-[5-(trifluoromethyl)-1,2,4-oxadiazol-3-yl]pyridin-2-yl}oxy)methyl]-6,7-dihydro-5H-pyrazolo[5,1-b][1,3]oxazine] the IC50 [1] was 4400 nM and the IC50 [2] was 6800 nM.
For `O=C(CC1COC1)N(Cc1ccc(-c2noc(C(F)(F)F)n2)cc1)c1cccc(C(F)(F)F)c1` [Example 80, 2-(oxetan-3-yl)-N-(4-(5-(trifluoromethyl)-1,2,4-oxadiazol-3-yl)benzyl)-N-(3-(trifluoromethyl)phenyl)acetamide], the IC50 [1] was 2800 nM and the IC50 [2] was 1600 nM.
Compound `Cc1nc(COc2cc(-c3noc(C(F)(F)F)n3)ccn2)no1` [Example 225, 2-[(5-methyl-1,2,4-oxadiazol-3-yl)methoxy]-4-[5-(trifluoromethyl)-1,2,4-oxadiazol-3-yl]pyridine] has an IC50 [1] of 620 nM and an IC50 [2] of 1500 nM.
